Results published in patent publication US20060140869A1, “Polymeric contrast agents for use in medical imaging” (priority 2004, published 2006).

System: rat mammary adenocarcinoma (Mat B) tumor
Test: MR imaging of subcutaneous Mat B tumors in rats after intravenous injection of polymeric contrast agent
Assay type: in vivo
Settings: Mat B tumor in Fisher female rats
Protocol: Fisher female rats were implanted subcutaneously with rat mammary adenocarcinoma cells (ATTC Mat B cells) that were grown to a suitable density in tissue culture. The implanted cells grew into tumors of 1-2 cm diameter in about 10 to 14 days and continued to grow to larger sizes when experiments extended beyond that time frame.
The reptating polymer that was used (Polylysine-Gd-DTPA) was synthesized using a synthesis method described above with polymer length of 780 monomer units, molecular weight of 460 kDaltons, and about 98% of lysines acylated with DTPA (i.e. about 764 Gd ions). The animals were injected intravenously at a dose of 0.025 mmoles Gd/kG. FIG. 1 are a series of images taken wherein the imaging was done pre-injection, one minute after injection, 60 minutes after injection, and 24 hours after injection with a T1 weighted spin echo pulse sequence (TR=250 ms, TE=9 ms), 12 centimeter FOV, 1 millimeter slices. Receive coil was a solenoid coil of about 5 centimeters diameter. Imaging was done on a Signa 1.5 Tesla scanner.
FIG. 2 is a graph of the slopes in signal change for all the pixels in the tumor and the highest 10% of pixels in the tumor. The signals are heterogenous in space due to angiogenesis being most prevalent in the outer rim of the tumor. Thus in order to capture the regions of interest with high permeability, the average signal associated with the pixels of the entire tumor in the image slice is plotted in addition to the average signal associated with the highest 10% of the pixels. The highest 10% of the pixels represents the hypermeable regions associated with angiogenic processes. The use of all pixels represents the average values for the entire tumor which includes then the center of tumors which are often necrotic and unreactive in terms of blood perfusion. These regions are not biologically relevant and thus the total average values have more “noise” that are associated with the necrotic processes which are not of direct interest in the present case. […]

[1] = linear regression fit, intravenous injection, T1 weighted spin echo, 1.5 Tesla

Substance	magnetic resonance signal change compared with the polymer of Example 2 (0.025 mmoles Gd/kG intravenously)	slope of signal change, all the pixels in the tumor [1] [% per hour]	slope of signal change, highest 10% of the pixels in the tumor [1] [% per hour]
Polylysine-Gd-DTPA [Example 1]	enhanced magnetic resonance signals	–	–
Polylysine-Gd-DTPA [Example 2]	–	7	14
